test system: NOMO-1; assay: cell viability (% survival relative to DMSO control, bortezomib = 0%); higher = less cytotoxic; settings: 100 nM; 72 h
Outline: (§1)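 Percent survival figures are means of duplicate wells. They were obtained by CellTiter-Glo luminescence after 10 AML and 5 CML cell lines spent 72 h at 37 °C with 5% CO2 in 384-well plates with compounds at 1, 10, 100, 1000 or 10000 nM. Vehicle was set to 100% and a 10 µM positive control to 0%.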

| Structure (SMILES) | cell viability |
| --- | --- |
| O=c1oc2c(O)c(O)cc3c(=O)oc4c(O)c(O)cc1c4c23 [Benzoaric Acid] | 104% |
| Cc1c(-c2ccc(-c3ccccc3F)cc2)nc2ccc(F)cc2c1C(=O)O [Brequinar] | 104% |
| O=C1O/C(=C/Br)CCC1c1cccc2ccccc12 (stereo unspecified) [Bromoenol Lactone] | 100% |
| O=C(O)CCCCC(CCSCc1ccccc1)SCc1ccccc1 (stereo unspecified) [CPI-613] | 98.2% |
| CC(C)c1cc2c(c(O)c1O)[C@@]1(C(=O)O)CCCC(C)(C)[C@@H]1CC2 [Carnosic acid] | 96.9% |
| CCN(CC)CCCC(C)Nc1ccnc2cc(Cl)ccc12 (stereo unspecified) [Chloroquine] | 97.9% |
| Nc1nc(Cl)nc2c1ncn2[C@H]1C[C@H](O)[C@@H](CO)O1 [Cladribine] | 21.5% |
| NCCCC(N)(C(=O)O)C(F)F (stereo unspecified) [Difluoromethylornithine] | 102% |

same assay, conditions: 1000 nM; 72 h

| Structure (SMILES) | cell viability |
| --- | --- |
| COc1ccc(S(=O)(=O)N2CCN(S(=O)(=O)c3ccc4c(c3)OCCO4)CC2)cc1 [BML283] | 102% |
| O=c1cc(-c2ccccc2)oc2cc(O)c(O)c(O)c12 [Baicalein] | 123% |
| COC(=O)[C@]12CCC(C)(C)C[C@H]1[C@H]1C(=O)C=C3[C@@]4(C)C=C(C#N)C(=O)C(C)(C)[C@@H]4CC[C@@]3(C)[C@]1(C)CC2 [Bardoxolone methyl] | 101% |
| O=c1oc2c(O)c(O)cc3c(=O)oc4c(O)c(O)cc1c4c23 [Benzoaric Acid] | 99.9% |
| Cc1c(-c2ccc(-c3ccccc3F)cc2)nc2ccc(F)cc2c1C(=O)O [Brequinar] | 104% |
| O=C1O/C(=C/Br)CCC1c1cccc2ccccc12 (stereo unspecified) [Bromoenol Lactone] | 82.7% |
| O=C(O)CCCCC(CCSCc1ccccc1)SCc1ccccc1 (stereo unspecified) [CPI-613] | 100% |
| CC(C)c1cc2c(c(O)c1O)[C@@]1(C(=O)O)CCCC(C)(C)[C@@H]1CC2 [Carnosic acid] | 99% |
| CCN(CC)CCCC(C)Nc1ccnc2cc(Cl)ccc12 (stereo unspecified) [Chloroquine] | 96.2% |
| Nc1nc(Cl)nc2c1ncn2[C@H]1C[C@H](O)[C@@H](CO)O1 [Cladribine] | 1.41% |
| NCCCC(N)(C(=O)O)C(F)F (stereo unspecified) [Difluoromethylornithine] | 95.6% |

same assay, conditions: 10000 nM; 72 h

| Structure (SMILES) | cell viability |
| --- | --- |
| COc1ccc(S(=O)(=O)N2CCN(S(=O)(=O)c3ccc4c(c3)OCCO4)CC2)cc1 [BML283] | 99.7% |
| O=c1cc(-c2ccccc2)oc2cc(O)c(O)c(O)c12 [Baicalein] | 98.2% |
| COC(=O)[C@]12CCC(C)(C)C[C@H]1[C@H]1C(=O)C=C3[C@@]4(C)C=C(C#N)C(=O)C(C)(C)[C@@H]4CC[C@@]3(C)[C@]1(C)CC2 [Bardoxolone methyl] | 80.8% |
| O=c1oc2c(O)c(O)cc3c(=O)oc4c(O)c(O)cc1c4c23 [Benzoaric Acid] | 102% |
| Cc1c(-c2ccc(-c3ccccc3F)cc2)nc2ccc(F)cc2c1C(=O)O [Brequinar] | 89.5% |
| O=C1O/C(=C/Br)CCC1c1cccc2ccccc12 (stereo unspecified) [Bromoenol Lactone] | 40.4% |
| O=C(O)CCCCC(CCSCc1ccccc1)SCc1ccccc1 (stereo unspecified) [CPI-613] | 97.2% |
| CC(C)c1cc2c(c(O)c1O)[C@@]1(C(=O)O)CCCC(C)(C)[C@@H]1CC2 [Carnosic acid] | 102% |
| CCN(CC)CCCC(C)Nc1ccnc2cc(Cl)ccc12 (stereo unspecified) [Chloroquine] | 93.7% |
| Nc1nc(Cl)nc2c1ncn2[C@H]1C[C@H](O)[C@@H](CO)O1 [Cladribine] | 0.34% |
| NCCCC(N)(C(=O)O)C(F)F (stereo unspecified) [Difluoromethylornithine] | 99.7% |

test system: THP-1; assay: as above; settings: 1 nM; 72 h
Outline: as §1

| Structure (SMILES) | cell viability |
| --- | --- |
| COc1ccc(S(=O)(=O)N2CCN(S(=O)(=O)c3ccc4c(c3)OCCO4)CC2)cc1 [BML283] | 98.5% |
| O=c1cc(-c2ccccc2)oc2cc(O)c(O)c(O)c12 [Baicalein] | 99.4% |
| COC(=O)[C@]12CCC(C)(C)C[C@H]1[C@H]1C(=O)C=C3[C@@]4(C)C=C(C#N)C(=O)C(C)(C)[C@@H]4CC[C@@]3(C)[C@]1(C)CC2 [Bardoxolone methyl] | 95.2% |
| O=c1oc2c(O)c(O)cc3c(=O)oc4c(O)c(O)cc1c4c23 [Benzoaric Acid] | 102% |
| Cc1c(-c2ccc(-c3ccccc3F)cc2)nc2ccc(F)cc2c1C(=O)O [Brequinar] | 99.9% |
| O=C1O/C(=C/Br)CCC1c1cccc2ccccc12 (stereo unspecified) [Bromoenol Lactone] | 97.3% |
| O=C(O)CCCCC(CCSCc1ccccc1)SCc1ccccc1 (stereo unspecified) [CPI-613] | 102% |
| CC(C)c1cc2c(c(O)c1O)[C@@]1(C(=O)O)CCCC(C)(C)[C@@H]1CC2 [Carnosic acid] | 98.3% |
| CCN(CC)CCCC(C)Nc1ccnc2cc(Cl)ccc12 (stereo unspecified) [Chloroquine] | 108% |
| Nc1nc(Cl)nc2c1ncn2[C@H]1C[C@H](O)[C@@H](CO)O1 [Cladribine] | 102% |
| NCCCC(N)(C(=O)O)C(F)F (stereo unspecified) [Difluoromethylornithine] | 96.5% |

same assay, conditions: 10 nM; 72 h

| Structure (SMILES) | cell viability |
| --- | --- |
| COc1ccc(S(=O)(=O)N2CCN(S(=O)(=O)c3ccc4c(c3)OCCO4)CC2)cc1 [BML283] | 103% |
| O=c1cc(-c2ccccc2)oc2cc(O)c(O)c(O)c12 [Baicalein] | 95.6% |
| COC(=O)[C@]12CCC(C)(C)C[C@H]1[C@H]1C(=O)C=C3[C@@]4(C)C=C(C#N)C(=O)C(C)(C)[C@@H]4CC[C@@]3(C)[C@]1(C)CC2 [Bardoxolone methyl] | 104% |
| O=c1oc2c(O)c(O)cc3c(=O)oc4c(O)c(O)cc1c4c23 [Benzoaric Acid] | 97.3% |
| Cc1c(-c2ccc(-c3ccccc3F)cc2)nc2ccc(F)cc2c1C(=O)O [Brequinar] | 98.5% |
| O=C1O/C(=C/Br)CCC1c1cccc2ccccc12 (stereo unspecified) [Bromoenol Lactone] | 97.6% |
| O=C(O)CCCCC(CCSCc1ccccc1)SCc1ccccc1 (stereo unspecified) [CPI-613] | 90.1% |
| CC(C)c1cc2c(c(O)c1O)[C@@]1(C(=O)O)CCCC(C)(C)[C@@H]1CC2 [Carnosic acid] | 101% |
| CCN(CC)CCCC(C)Nc1ccnc2cc(Cl)ccc12 (stereo unspecified) [Chloroquine] | 101% |
| Nc1nc(Cl)nc2c1ncn2[C@H]1C[C@H](O)[C@@H](CO)O1 [Cladribine] | 93.7% |
| NCCCC(N)(C(=O)O)C(F)F (stereo unspecified) [Difluoromethylornithine] | 95.6% |

same assay, conditions: 100 nM; 72 h

| Structure (SMILES) | cell viability |
| --- | --- |
| COc1ccc(S(=O)(=O)N2CCN(S(=O)(=O)c3ccc4c(c3)OCCO4)CC2)cc1 [BML283] | 99.3% |
| O=c1cc(-c2ccccc2)oc2cc(O)c(O)c(O)c12 [Baicalein] | 93.5% |
| COC(=O)[C@]12CCC(C)(C)C[C@H]1[C@H]1C(=O)C=C3[C@@]4(C)C=C(C#N)C(=O)C(C)(C)[C@@H]4CC[C@@]3(C)[C@]1(C)CC2 [Bardoxolone methyl] | 108% |
| O=c1oc2c(O)c(O)cc3c(=O)oc4c(O)c(O)cc1c4c23 [Benzoaric Acid] | 94.3% |
| Cc1c(-c2ccc(-c3ccccc3F)cc2)nc2ccc(F)cc2c1C(=O)O [Brequinar] | 99% |
| O=C1O/C(=C/Br)CCC1c1cccc2ccccc12 (stereo unspecified) [Bromoenol Lactone] | 92.3% |
| O=C(O)CCCCC(CCSCc1ccccc1)SCc1ccccc1 (stereo unspecified) [CPI-613] | 96.2% |
| CC(C)c1cc2c(c(O)c1O)[C@@]1(C(=O)O)CCCC(C)(C)[C@@H]1CC2 [Carnosic acid] | 109% |
| CCN(CC)CCCC(C)Nc1ccnc2cc(Cl)ccc12 (stereo unspecified) [Chloroquine] | 101% |

From the supplement of paper PMC8671470
